This note sets out measurements from patent publication US20220024851A1, “CRYSTALLINE FORMS OF MULTICYCLIC COMPOUNDS AND USES THEREOF” (Convelo Therapeutics, Inc., priority 2018, published 2022).

The term kinetic solubility denotes the concentration staying in solution when a stock, usually in DMSO, is diluted into the medium.

What all share (type): physicochemical
Data set [1] can be described thus: Dynamic vapor sorption (DVS) / hygroscopicity. The following applies: for Desorption, hysteresis and form change after moisture sorption-desorption: moisture sorption-desorption cycles, XRPD. The protocol:
The crystalline forms provided can be additionally characterized by dynamic vapor sorption (DVS), wherein a sample is subjected to varying conditions of humidity and temperature, and the response of the sample is measured gravimetrically. The result of a DVS analysis particularly can be a dual curve providing sample weight percent as a function of relative humidity (RH) over time, a dual curve providing sample water content as a function of RH over time, a curve providing weight percent in relation to RH, or a curve providing water content in relation to RH. Equipment useful for measuring such data is known in the art, and any such equipment can be used to measure the compounds according to the present invention. In certain embodiments, DVS analysis can be carried out by scanning at a series of specific RH values. Thus, specific crystalline forms according to the invention may be identified and described in relation to the representative graph and/or the approximate peaks obtained in DVS analysis, particularly scanning from 0% to 95% RH with a step interval of 5% or 10% RH.
Hygroscopicities of the materials described in the present disclosure are classified according to Table 1
DVS data were collected on a VTI SGA-100 Vapor Sorption Analyzer. NaCl and PVP were used as calibration standards. Samples were not dried prior to analysis. Sorption and desorption data were collected over a range from 5% to 95% RH at 10% RH increments under a nitrogen purge. The equilibrium criterion used for analysis was less than 0.0100% weight change in 5 minutes with a maximum equilibration time of 3 hours. Data were not corrected for the initial moisture content of the samples.

The nature of data set [2]: Thermogravimetric analysis (TGA), thermal decomposition. The following applies: for Decomposition onset: TGA, heated under nitrogen. The protocol: TGA is a method of thermal gravimetric analysis in which changes in physical and chemical properties of a material are measured as a function of increasing temperature (with constant heating rate) or as a function of time (with constant temperature and/or constant mass loss). TGA can provide information about physical phenomena, such as second-order phase transitions, or about chemical phenomena, such as desolvation and/or decomposition.
TG analyses described herein were performed using a Mettler Toledo TGA/DSC3+ analyzer. Balance check was performed using calcium oxalate, and temperature calibration was performed using indium, tin, and zinc. The sample was placed in an aluminum pan. The sample was sealed, the lid pierced, then inserted into the TG furnace. The furnace was heated under nitrogen.

Data set [3] can be described thus: Aqueous kinetic solubility by aliquot addition method. The following applies: water; for solubility kinetic / Kinetic Solubility: ambient temperature, visual dissolution. An excerpt:
Generated solids were typically observed by polarized light microscopy and, if crystalline (i.e. display birefringence and extinction), analyzed by XRPD. The XRPD patterns were compared to each other and to available reference patterns of salt formers. If unique by XRPD, the materials were further analyzed by ^1H NMR, TGA, DSC, and DVS. Kinetic solubilities of selected materials were estimated by aliquot addition method. Equilibrium solubilities were estimated gravimetrically using supernatants from suspensions equilibrated at ambient temperature for approximately 7-10 days.
Weighed samples of material were treated with aliquots of water at ambient temperature. Samples were typically sonicated between additions to facilitate dissolution. Complete dissolution was observed through visual inspection. Solubilities were calculated based on the total amount of solvent added to achieve complete dissolution and may be greater than the value reported due to incremental solvent addition and the inherent kinetics of dissolution. If dissolution was not observed, values are reported as “less than”. If complete dissolution was observed upon the first aliquot of solvent, values are reported as “greater than”.
Kinetic solubility was estimated by aliquot addition method, and dissolution was judged by visual observations. If dissolution was not observed, values are reported as “less than.” If complete dissolution was observed upon the first aliquot of solvent, values are reported as “greater than.” Kinetic solubility of selected salts is presented in Table 8.

[4] abbreviates: upon increase of RH / entire RH range.

Structures can show the parent of a compound that is named as a salt.

Take `CCN(C/C=C\c1ccc(C2CCCCC2)c(Cl)c1)C1CCCCC1.O=S(=O)(O)CCS(=O)(=O)O` [Edisylate salt, Edisylate Salt of Cis-N-cyclohexyl-N-ethyl-3-(3-chloro-4-cyclohexylphenyl)prop-2-enylamine]: the values for the DVS weight gain result in data set [1] (5-75% RH) and in data set [1] (75-95% RH) were “about 0.35%” and “about 18.55%”, respectively. Further, the Hygroscopicity result in data set [1] (above 75% RH) is “significant hygroscopicity and deliquesces”; in data set [1] (below 75% RH), “non-hygroscopic”. In addition, in data set [1], the “Desorption, hysteresis and form change after moisture sorption-desorption” value (shortened to “Desorption, hysteresis and form change”) is “form change to a highly disordered material”. The compound also yielded a Decomposition onset in data set [2] of 260 °C.
On to `CCN(C/C=C\c1ccc(C2CCCCC2)c(Cl)c1)C1CCCCC1.O=C(O)c1ccc2ccccc2c1O` [Xinafoate salt, Xinafoate Salt of Cis-N-cyclohexyl-N-ethyl-3-(3-chloro-4-cyclohexylphenyl)prop-2-enylamine], for which the DVS weight gain entry is “about 0.88%” in data set [1] (5-85% RH) and “about 0.85%” in data set [1] (85-95% RH). Besides, the Hygroscopicity entry in data set [1] (above 65% RH) was “limited hygroscopicity”; in data set [1] (below 65% RH), “non-hygroscopic”. The “Desorption, hysteresis and form change” value in data set [1] was “A form change is suggested”. The Decomposition onset in data set [2] stood at 146 °C.
`CCN(C/C=C\c1ccc(C2CCCCC2)c(Cl)c1)C1CCCCC1.CCS(=O)(=O)O` [Esylate salt, Esylate Salt of Cis-N-cyclohexyl-N-ethyl-3-(3-chloro-4-cyclohexylphenyl)prop-2-enylamine]: the DVS weight gain result in data set [1] (5-85% RH) was “about 0.35%”; in data set [1] (5 to 95% RH) it was “about 0.9 wt %”; in data set [1] (85-95% RH), 0.51%. In addition, the “Desorption, hysteresis and form change” value in data set [1] is “complete desorption without hysteresis or form change”. In data set [1] (setting [4]), the Hygroscopicity entry is “limited hygroscopicity”. In data set [2], the Decomposition onset worked out at 268 °C. Besides, the solubility (kinetic) in data set [3] turned out to be 30000 µg/mL. The “fold more soluble than all other crystalline salts isolated (kinetic solubility)” value in data set [3] (vs other crystalline salts) was “more than 30 fold”.
Consider `CCN(C/C=C\c1ccc(C2CCCCC2)c(Cl)c1)C1CCCCC1.O=S(=O)(O)c1ccccc1` [Besylate salt, Besylate Salt of Cis-N-cyclohexyl-N-ethyl-3-(3-chloro-4-cyclohexylphenyl)prop-2-enylamine], for which the figures for the DVS weight gain result in data set [1] (5-85% RH) and in data set [1] (85-95% RH) were “about 0.88%” and “about 0.85%”, respectively. Moreover, the “Desorption, hysteresis and form change” value in data set [1] is “complete desorption without form change and with almost no hysteresis”. The Hygroscopicity entry in data set [1] (setting [4]) is on record as “limited hygroscopicity”. Further, in data set [2], the Decomposition onset amounted to 274 °C. For the same compound, the results for the “Kinetic Solubility” value in data set [3] and in data set [3] (listed as Besylate slat) were under 600 µg/mL and under 1000 µg/mL, respectively.
In the case of `CCN(C/C=C\c1ccc(C2CCCCC2)c(Cl)c1)C1CCCCC1` [Salicylate salt, Salicylate Salt of Cis-N-cyclohexyl-N-ethyl-3-(3-chloro-4-cyclohexylphenyl)prop-2-enylamine], the DVS weight gain entry in data set [1] (5-95% RH) is on record as “about 0.04%”; in data set [1] (5 to 95% RH), “about 0.04 wt %”. The Hygroscopicity result was “non-hygroscopic” in data set [1] (setting [4]) and “lack of hygroscopicity” in data set [1] (upon increase of RH / entire RH range, listed as salicylate). Also, the Thermal stability entry in data set [2] was “thermally stable”. In addition, the Decomposition onset in data set [2] worked out at 212 °C. For the same compound, the kinetic solubility in data set [3] was under 1000 µg/mL.
